Molecular target: T1, human OX2R (Homo sapiens, UniProt O43614)
T1 construct: expressed in transfected cells; host or cells: CHO (Chinese hamster ovary) cells grown under G418 selection
T1 sequence (O43614 1-444): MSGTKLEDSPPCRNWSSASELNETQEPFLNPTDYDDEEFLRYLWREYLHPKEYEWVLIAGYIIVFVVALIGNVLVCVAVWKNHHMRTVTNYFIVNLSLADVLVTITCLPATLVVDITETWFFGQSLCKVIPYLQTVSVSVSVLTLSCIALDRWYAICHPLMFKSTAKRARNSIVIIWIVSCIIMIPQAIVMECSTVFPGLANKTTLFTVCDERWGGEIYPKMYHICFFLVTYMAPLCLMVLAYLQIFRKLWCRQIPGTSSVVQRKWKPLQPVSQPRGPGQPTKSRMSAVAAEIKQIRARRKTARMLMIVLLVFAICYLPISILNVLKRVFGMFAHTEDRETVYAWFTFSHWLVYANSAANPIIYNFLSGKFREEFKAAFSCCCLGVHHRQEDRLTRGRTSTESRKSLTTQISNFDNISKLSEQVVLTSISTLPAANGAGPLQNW
Test: IPOne (IP-1 accumulation) assay in CHO cells expressing human OX2R
Type: cell-based
Details: for EC50: CHO cells expressing human OX2R, IP-One assay, 2 h incubation, four parameter logistic fit, read-out: OX2R Potency, EC50; for % of maximum agonist effect (relative to Orexin A): percent effect vs mean max effect of a reference compound at 1 uM (100% activity vs Orexin A), human OX2R
From the text: The utility of the compounds in accordance with the present invention as orexin receptor OX1R and/or OX2R agonists may be readily determined without undue experimentation by methodology well known in the art. Both the OX1R and/or OX2R G-coupled protein receptors (GPCRs) couple through the Gαq signaling pathway, which ultimately promotes calcium mobilization via inositol triphosphate (IP3) production. […] The utility of the compounds in accordance with the present invention as orexin receptor OX1R and/or OX2R agonists may be determined utilizing this assay.
In a typical experiment, the OX1 and OX2 receptor agonist activity is determined in accordance with the following general experimental method. Chinese hamster ovary (CHO) cells expressing human OX1R and/or the human OX2R were grown in Iscove's modified DMEM containing glutaMAX™, 1% G418, 100 U/mL penicillin, 100 μg/mL streptomycin and 10% heat-inactivated qualified fetal bovine serum (FBS). […] During this incubation, IP-one detection reagents were prepared (38:1:1 lysis buffer:D2:AB-cryptate reagents).
For each compound, data were fit to a four parameter logistic fit (ActivityBase software) and the EC50 was reported as the inflection point of the resulting curve. […] The intrinsic orexin receptor agonist activity of a compound which may be used in the present invention may be determined by these assays.

Row | Compound | EC50 [nM] | % of maximum agonist effect (relative to Orexin A) [%] | % of maximum agonist effect (relative to Orexin A) (1 µM) [%]
1 | CCN(C(=O)N[C@@H](CCC(F)(F)F)C(F)(F)F)C(c1cc(-c2cc(OC)c3nccnc3c2)c(OC)cn1)C(F)(F)F (stereo partly drawn) [Example 10-13, 1-ethyl-3-((S)-1,1,1,5,5,5-hexafluoropentan-2-yl)-1-(2,2,2-trifluoro-1-(5-methoxy-4-(8-methoxyquinoxalin-6-yl)pyridin-2-yl)ethyl)urea] | 132 | 101.7 | –
2 | CCN(C(=O)NC(COC(=O)N(C)C)C(F)(F)F)[C@H](C)c1cccc(-c2cn3ccnc3c(OC)n2)c1 (single isomer, unassigned) [Example 23] | 125 | 95.3 | –
3 | CCN(C(=O)N[C@@H](CCC#N)C(F)(F)F)[C@@H](c1cc(-c2cn3ccnc3c(OC)n2)c(OC)cn1)C(F)(F)F [Example 2-35, 3-((S)-4-cyano-1,1,1-trifluorobutan-2-yl)-1-ethyl-1-((S)-2,2,2-trifluoro-1-(5-methoxy-4-(8-methoxyimidazo[1,2-a]pyrazin-6-yl)pyridin-2-yl)ethyl)urea] | 0.9 | 102.3 | –
4 | CCN(C(=O)NC(C#N)C1CCCC(F)(F)C1)[C@H](C)c1cccc(-c2cn3ccnc3c(OC)n2)c1 (single isomer, unassigned) [Example 16] | 3.2 | 100.8 | –
5 | CCOC1(CC(NC(=O)N(CC)[C@H](C)c2cccc(-c3cn4ccnc4c(OC)n3)c2)C(F)(F)F)CC1 (stereo partly drawn) [Example 2-57, 3-(3-(1-ethoxycyclopropyl)-1,1,1-trifluoropropan-2-yl)-1-ethyl-1-((R)-1-(3-(8-methoxyimidazo[1,2-a]pyrazin-6-yl)phenyl)ethyl)urea] | 15.3 | 96.2 | –
6 | C#CCCCC(NC(=O)N(CC)[C@H](C)c1cccc(-c2cn3ccnc3c(OC)n2)c1)C(F)(F)F (stereo partly drawn) [Example 3-7, 1-ethyl-1-((R)-1-(3-(8-methoxyimidazo[1,2-a]pyrazin-6-yl)phenyl)ethyl)-3-(1,1,1-trifluorohept-6-yn-2-yl)urea] | 4.4 | 100.5 | –
7 | CC[C@H](CCC(F)(F)F)NC(=O)N(CC)[C@H](C)c1ccc(OC)c(-c2cc(N)c3nccn3c2)c1 [Example 8-4, 1-((R)-1-(3-(8-aminoimidazo[1,2-a]pyridin-6-yl)-4-methoxyphenyl)ethyl)-1-ethyl-3-((R)-6,6,6-trifluorohexan-3-yl)urea] | 25.9 | 98.7 | –
8 | CCN(C(=O)N[C@@H](CCC(F)=C(F)F)C(F)(F)F)[C@@H](c1cc(-c2cn3cc(C)nc3c(OC)n2)c(OC)cn1)C(F)(F)F [Example 3-4, 1-ethyl-3-((S)-1,1,1,5,6,6-hexafluorohex-5-en-2-yl)-1-((S)-2,2,2-trifluoro-1-(5-methoxy-4-(8-methoxy-2-methylimidazo[1,2-a]pyrazin-6-yl)pyridin-2-yl)ethyl)urea] | 27.8 | 100.5 | –
9 | CCN(C(=O)N[C@@H](CCC(F)(F)F)C(F)(F)F)C(c1cncc(-c2cn3ccnc3c(OC)n2)c1)C(F)(F)F (stereo partly drawn) [Example 10-22, 1-ethyl-3-((S)-1,1,1,5,5,5-hexafluoropentan-2-yl)-1-(2,2,2-trifluoro-1-(5-(8-methoxyimidazo[1,2-a]pyrazin-6-yl)pyridin-3-yl)ethyl)urea] | 76.9 | 99.4 | –
10 | CCN(C(=O)NC1CC(C(F)(F)F)C1)[C@@H](c1cc(-c2cn3ccnc3c(OC)n2)c(OC)cn1)C(F)(F)F (stereo partly drawn) [Example 2-38, (S)-1-ethyl-1-(2,2,2-trifluoro-1-(5-methoxy-4-(8-methoxyimidazo[1,2-a]pyrazin-6-yl)pyridin-2-yl)ethyl)-3-(3-(trifluoromethyl)cyclobutyl)urea] | 4.2 | 99.7 | –
11 | CCN(C(=O)N[C@@H](CCC(F)(F)F)C(F)(F)F)[C@H](C)c1cccc(-c2ccc3ncc(N)n3c2)c1 [Example 8-12, 1-((R)-1-(3-(3-aminoimidazo[1,2-a]pyridin-6-yl)phenyl)ethyl)-1-ethyl-3-((S)-1,1,1,5,5,5-hexafluoropentan-2-yl)urea] | 17.4 | 96.7 | –
12 | CCN(C(=O)N[C@@H](C=C(C)C)C(F)(F)F)[C@H](C)c1cccc(-c2cn3ccnc3c(OC)n2)c1 [Example 20, 1-ethyl-1-((R)-1-(3-(8-methoxyimidazo[1,2-a]pyrazin-6-yl)phenyl)ethyl)-3-((S)-1,1,1-trifluoro-4-methylpent-3-en-2-yl)urea] | – | – | 100.1
13 | CCN(C(=O)N[C@@H](CCC(F)(F)F)C(F)(F)F)[C@H](C)c1cccc(-c2ccc3nccn3c2)c1 [Example 1-1, 1-ethyl-3-((S)-1,1,1,5,5,5-hexafluoropentan-2-yl)-1-((R)-1-(3-(imidazo[1,2-a]pyridin-6-yl)phenyl)ethyl)urea] | 7.1 | 98.4 | –
14 | CCN(C(=O)NC(CC(C)=O)C(F)(F)F)[C@@H](c1cc(-c2cn3ccnc3c(OC)n2)c(OC)cn1)C(F)(F)F (stereo partly drawn) [Example 2-34, 1-ethyl-1-((S)-2,2,2-trifluoro-1-(5-methoxy-4-(8-methoxyimidazo[1,2-a]pyrazin-6-yl)pyridin-2-yl)ethyl)-3-(1,1,1-trifluoro-4-oxopentan-2-yl)urea] | 2.7 | 101.1 | –
15 | CCN(C(=O)NC(C1CCCOC1)C(F)(F)F)[C@@H](c1cc(-c2cn3cc(C)nc3c(OC)n2)c(OC)cn1)C(F)(F)F (stereo partly drawn) [Example 2-47, 1-ethyl-1-((S)-2,2,2-trifluoro-1-(5-methoxy-4-(8-methoxy-2-methylimidazo[1,2-a]pyrazin-6-yl)pyridin-2-yl)ethyl)-3-(2,2,2-trifluoro-1-(tetrahydro-2H-pyran-3-yl)ethyl)urea] | 16.7 | 100.7 | –
16 | CCC(CCC(F)(F)F)NC(=O)N(CC)[C@H](C)c1cccc(-c2cn3ccnc3cc2COC)c1 (stereo partly drawn) [Example 7-6, 1-ethyl-1-((R)-1-(3-(7-(methoxymethyl)imidazo[1,2-a]pyridin-6-yl)phenyl)ethyl)-3-(6,6,6-trifluorohexan-3-yl)urea] | 1410 | 100.8 | –
17 | CCN(C(=O)NC(Cn1ccnn1)C(F)(F)F)[C@H](C)c1cccc(-c2cn3ccnc3c(OC)n2)c1 (stereo partly drawn) [Example 1-17, 1-ethyl-1-((R)-1-(3-(8-methoxyimidazo[1,2-a]pyrazin-6-yl)phenyl)ethyl)-3-(1,1,1-trifluoro-3-(1H-1,2,3-triazol-1-yl)propan-2-yl)urea] | 10.5 | 98.7 | –
18 | CCC(CC(C)C(F)(F)F)NC(=O)N(CC)[C@H](C)c1cccc(-c2cn3ccnc3c(OC)n2)c1 (stereo partly drawn) [Example 2-3, 1-ethyl-1-((R)-1-(3-(8-methoxyimidazo[1,2-a]pyrazin-6-yl)phenyl)ethyl)-3-(6,6,6-trifluoro-5-methylhexan-3-yl)urea] | 4.6 | 100.6 | –
19 | CC[C@H](CCC(F)(F)F)NC(=O)N(CC)[C@H](C)c1ccc(Br)c(-c2ccc3nccn3c2)c1 [Example 11-3, 1-((R)-1-(4-bromo-3-(imidazo[1,2-a]pyridin-6-yl)phenyl)ethyl)-1-ethyl-3-((R)-6,6,6-trifluorohexan-3-yl)urea] | 129 | 91.8 | –
20 | CCN(C(=O)N[C@@H](CCC(F)(F)F)C(F)(F)F)[C@H](C)c1cc(-c2cn3ccnc3c(OC)n2)c(OC)nn1 [Example 10-3, 1-ethyl-3-((S)-1,1,1,5,5,5-hexafluoropentan-2-yl)-1-((R)-1-(6-methoxy-5-(8-methoxyimidazo[1,2-a]pyrazin-6-yl)pyridazin-3-yl)ethyl)urea] | 0.8 | 101.7 | –
21 | CCN(C(=O)N[C@@H](CCC(F)(F)F)C(F)(F)F)[C@@H](c1cc(-c2nc(OC)c3nccn3c2C)c(OC)cn1)C(F)(F)F [Example 9-3, 1-ethyl-3-((S)-1,1,1,5,5,5-hexafluoropentan-2-yl)-1-((S)-2,2,2-trifluoro-1-(5-methoxy-4-(8-methoxy-5-methylimidazo[1,2-a]pyrazin-6-yl)pyridin-2-yl)ethyl)urea] | 6.2 | 100.7 | –

From US12692262B2, “Substituted ureas as orexin receptor agonists” (Merck Sharp & Dohme LLC, priority 2020, dated 2026)
